# Test results reported in patent publication US9738932B2, “Biomarkers for cardiovascular side-effects induced by cox-2 inhibitory compounds” (FIRALIS SAS, priority 2005, dated 2017).
# Test system: mRNA expression in cardiovascular tissues
# Assay: Affymetrix GeneChip mRNA expression profiling of monkey tissues (iliac vein, pulmonary vein, aorta, carotid artery, heart) after two-week oral-gavage treatment
# Conditions: iliac vein
# [1] = group average (Vioxx without A60055)
structure (smiles),measurement,setting,value
"CS(=O)(=O)c1ccc(C2=C(c3ccccc3)C(=O)OC2)cc1 [Vioxx®, rofecoxib]",HFE (211329_x_at) fold change vs control,animal A60055,1.8 fold
same,HFE (211332_x_at) fold change vs control,animal A60055,1.6 fold
same,HFE (211863_x_at) fold change vs control,animal A60055,1.8 fold
same,HFE (211866_x_at) fold change vs control,animal A60055,1.6 fold
same,HHL (203020_at) fold change vs control,animal A60055,2.2 fold
same,HLA-A (211528_x_at) fold change vs control,animal A60055,2.4 fold
same,HLA-A (211529_x_at) fold change vs control,animal A60055,2.1 fold
same,HLA-A (211530_x_at) fold change vs control,animal A60055,2.3 fold
same,HLA-A (215313_x_at) fold change vs control,animal A60055,1.8 fold
same,HLA-B (208729_x_at) fold change vs control,animal A60055,1.8 fold
same,HLA-B (209140_x_at) fold change vs control,animal A60055,1.9 fold
same,HLA-B (211911_x_at) fold change vs control,animal A60055,1.8 fold
same,HLA-C (208812_x_at) fold change vs control,animal A60055,1.8 fold
same,HLA-C (214459_x_at) fold change vs control,animal A60055,2.4 fold
same,HLA-C (216526_x_at) fold change vs control,animal A60055,2.0 fold
same,HLA-DMA (217478_s_at) fold change vs control,animal A60055,2.9 fold
same,HLA-DMB (203932_at) fold change vs control,animal A60055,1.5 fold
same,HLA-DQA1 (212671_s_at) fold change vs control,animal A60055,8.2 fold
same,HLA-DQB1 (209823_x_at) fold change vs control,animal A60055,4.3 fold
same,HLA-DQB1 (211654_x_at) fold change vs control,animal A60055,7.7 fold
same,HLA-DQB1 (211656_x_at) fold change vs control,animal A60055,4.1 fold
same,HLA-DQB2 (212998_x_at) fold change vs control,animal A60055,10.8 fold
same,HLA-DRA (208894_at) fold change vs control,animal A60055,2.3 fold
same,HLA-DRA (210982_s_at) fold change vs control,animal A60055,2.1 fold
same,HLA-DRB1 (215193_x_at) fold change vs control,animal A60055,2.9 fold
same,HLA-DRB3 (209312_x_at) fold change vs control,animal A60055,1.9 fold
same,HLA-DRB6 (217362_x_at) fold change vs control,animal A60055,2.2 fold
same,HLA-E (200905_x_at) fold change vs control,animal A60055,1.6 fold
same,HLA-E (217456_x_at) fold change vs control,animal A60055,1.8 fold
same,HLA-F (204806_x_at) fold change vs control,animal A60055,2.1 fold
same,HLA-F (221875_x_at) fold change vs control,animal A60055,2.3 fold
same,ICAM1 (202638_s_at) fold change vs control,animal A60055,1.6 fold
same,ICAM1 (215485_s_at) fold change vs control,animal A60055,2.1 fold
same,ICSBP1 (204057_at) fold change vs control,animal A60055,2.2 fold
same,IFI27 (202411_at) fold change vs control,animal A60055,20.8 fold
same,IFI30 (201422_at) fold change vs control,animal A60055,2.1 fold
same,IFI44 (214453_s_at) fold change vs control,animal A60055,8.2 fold
same,IFIT1 (203153_at) fold change vs control,animal A60055,5.0 fold
same,IFIT2 (217502_at) fold change vs control,animal A60055,4.7 fold
same,IFIT4 (204747_at) fold change vs control,animal A60055,1.6 fold
same,IFITM2 (201315_x_at) fold change vs control,animal A60055,1.9 fold
same,IFITM3 (212203_x_at) fold change vs control,animal A60055,1.6 fold
same,IGF1 (209541_at) fold change vs control,animal A60055,1.8 fold
same,IGFBP4 (201508_at) fold change vs control,animal A60055,1.7 fold
same,IL1A (208200_at) fold change vs control,animal A60055,2.2 fold
same,IL2RG (204116_at) fold change vs control,animal A60055,2.4 fold
same,IL27RA (205926_at) fold change vs control,animal A60055,2.2 fold
same,INDO (210029_at) fold change vs control,animal A60055,6.5 fold
same,INPP5D (203332_s_at) fold change vs control,animal A60055,1.7 fold
same,IRF1 (202531_at) fold change vs control,animal A60055,3.9 fold
same,IRF7 (208436_s_at) fold change vs control,animal A60055,3.4 fold
same,ISGF3G (203882_at) fold change vs control,animal A60055,3.1 fold
same,ITGB2 (202803_s_at) fold change vs control,animal A60055,1.7 fold
same,JAK1 (214377_s_at) fold change vs control,animal A60055,2.1 fold
same,KLKB1 (206541_at) fold change vs control,animal A60055,2.2 fold
same,LAIR1 (208071_s_at) fold change vs control,animal A60055,3.5 fold
same,LCK (204890_s_at) fold change vs control,animal A60055,2.2 fold
same,LCP2 (205270_s_at) fold change vs control,animal A60055,1.7 fold
same,LILRB1 (207857_at) fold change vs control,animal A60055,2.1 fold
same,LILRB1 (211100_x_at) fold change vs control,animal A60055,1.8 fold
same,LILRB3 (208594_x_at) fold change vs control,animal A60055,1.7 fold
same,LILRB3 (210225_x_at) fold change vs control,animal A60055,2.5 fold
same,LRMP (204674_at) fold change vs control,animal A60055,2.6 fold
same,LY86 (205859_at) fold change vs control,animal A60055,1.8 fold
same,LY96 (206584_at) fold change vs control,animal A60055,1.8 fold
same,LYN (210754_s_at) fold change vs control,animal A60055,1.7 fold
same,MAF (209348_s_at) fold change vs control,animal A60055,1.7 fold
same,PCOLCE (202465_at) fold change vs control,animal A60055,2.2 fold
same,PLA2G4C (209785_s_at) fold change vs control,animal A60055,3.3 fold
same,PLCL2 (216217_at) fold change vs control,animal A60055,1.7 fold
same,PLSCR1 (202446_s_at) fold change vs control,animal A60055,2.1 fold
same,PRC1 (218009_s_at) fold change vs control,animal A60055,2.0 fold
same,PRG1 (201858_s_at) fold change vs control,animal A60055,1.8 fold
same,PRG1 (201859_at) fold change vs control,animal A60055,1.5 fold
same,PTPN22 (206060_s_at) fold change vs control,animal A60055,2.5 fold
same,PTPRC (207238_s_at) fold change vs control,animal A60055,1.8 fold
same,SOCS3 (206360_s_at) fold change vs control,animal A60055,1.8 fold
same,STAT1 (209969_s_at) fold change vs control,animal A60055,13.5 fold
same,STAT1 (AFFX-HUMISGF3A/M97935_5_at) fold change vs control,animal A60055,4.3 fold
same,STAT1 (AFFX-HUMISGF3A/M97935_MA_at) fold change vs control,animal A60055,5.3 fold
same,STAT1 (AFFX-HUMISGF3A/M97935_MB_at) fold change vs control,animal A60055,7.1 fold
same,TAPBP (208829_at) fold change vs control,animal A60055,1.6 fold
same,TCTEL1 (201999_s_at) fold change vs control,animal A60055,1.7 fold
same,TLR1 (210176_at) fold change vs control,animal A60055,1.7 fold
same,TLR2 (204924_at) fold change vs control,animal A60055,1.7 fold
same,TNFAIP3 (202643_s_at) fold change vs control,animal A60055,2.0 fold
same,TNFAIP3 (202644_s_at) fold change vs control,animal A60055,2.3 fold
same,TNFSF6 (210865_at) fold change vs control,animal A60055,1.9 fold
same,TNFSF10 (202687_s_at) fold change vs control,animal A60055,2.9 fold
same,TNFSF10 (202688_at) fold change vs control,animal A60055,2.8 fold
same,TRGC2 (211144_x_at) fold change vs control,animal A60055,2.0 fold
same,TRGC2 (216920_s_at) fold change vs control,animal A60055,2.4 fold
same,VCAM1 (203868_s_at) fold change vs control,animal A60055,4.1 fold
same,XCL1 (206366_x_at) fold change vs control,animal A60055,4.3 fold
same,XCL1 (214567_s_at) fold change vs control,animal A60055,5.4 fold
same,XLKD1 (219059_s_at) fold change vs control,animal A60055,1.8 fold
same,cig5 (213797_at) fold change vs control,animal A60055,7.1 fold
same,"ACE (209749_s_at) mRNA expression, Avg fold changes vs control",[1],0.9 fold
same,"B2M (216231_s_at) mRNA expression, Avg fold changes vs control",[1],1.2 fold
